Legend:
[1] = tested on: DNA-PK null SCID mouse cell line; assay: Cell viability following irradiation (CellTiter-Glo), SCID; type: cell-based; conditions: for EC50 IR: SCID (SCID Tumor, DNA-PK null), viability at 6 days
Procedure: (§1) To evaluate the radiosensitizing effects of compounds of the invention in combination with ionizing radiation (IR), a broad panel of cell lines across multiple tumor types and genetic backgrounds were tested. Cells were incubated with DMSO or compound 578 for 30 minutes and then exposed to various doses of radiation (0, 0.5, 1, 2, 4, 6, 8, and 16 Gy). Cell viability was assessed at 6 days using CellTiter-Glo® (Promega, Inc).

[2] = tested on: OD26749 NSCLC subcutaneous xenograft; assay: In vivo efficacy, primary OD26749 NSCLC subcutaneous xenograft model with whole body IR; parameters: species or system Nude mice; conditions: Days 19 and 26, Day 30 post implantation
Procedure: The efficacy of compound 578 in vivo was evaluated in the primary OD26749 NSCLC subcutaneous xenograft model. This primary NSCLC tumor was obtained from a patient with a poorly differentiated adenocarcinoma and was serially passaged in SCID mice prior to this study. Nude mice were surgically implanted with 150-mg fragments of OD26749 tumor at passage 3 (P3). Whole body ionizing radiation (IR, 2 Gy/treatment) was administered using a dual Cesium 137 source and initiated when tumors reached approximately 350 mm^3. Tumor volumes were measured twice a week during the course of the study. Anti-tumor efficacy is expressed as % T/C (tumor/control) while regression is expressed as % T/Ti, the reduction in tumor volume compared to the starting tumor volume.
Compound 578 [in 16% Captisol®+HPMC/PVP] was administered orally (b.i.d. at 0 and 4 hours) at 25, 50, 100 mg/kg and (q.d.) 200 mg/kg on Day 19 post implantation. A single 2-Gy dose of whole body IR was given 15 minutes after compound administration. Control animals were given vehicle orally b.i.d. (0 and 4 hours). On Day 26 post implantation, the same regimens were repeated.

[3] = tested on: H460; assay: Cell viability following irradiation (CellTiter-Glo), H460; type: cell-based; conditions: H460 (Lung Cancer), viability at 6 days
Procedure: as §1

[4] = tested on: A549; assay: Cell viability following irradiation (CellTiter-Glo), A549; type: cell-based; conditions: A549 (Lung Cancer), viability at 6 days
Procedure: as §1

[5] = tested on: A172; assay: Cell viability following irradiation (CellTiter-Glo), A172; type: cell-based; conditions: A172 (Glioblastoma), viability at 6 days
Procedure: as §1

[6] = tested on: SK-MEL-5; assay: Cell viability following irradiation (CellTiter-Glo), SK-MEL-5; type: cell-based; conditions: SK-MEL-5 (Melanoma), viability at 6 days
Procedure: as §1

[7] = tested on: MCF7; assay: Cell viability following irradiation (CellTiter-Glo), MCF7; type: cell-based; conditions: MCF7 (Breast Cancer), viability at 6 days
Procedure: as §1

[8] = tested on: SMCC7721; assay: Cell viability following irradiation (CellTiter-Glo), SMCC7721; type: cell-based; conditions: SMCC7721 (Hepatocellular Carcinoma), viability at 6 days
Procedure: as §1

[9] = tested on: PATU8889T; assay: Cell viability following irradiation (CellTiter-Glo), PATU8889T; type: cell-based; conditions: PATU8889T (Pancreatic cancer), viability at 6 days
Procedure: as §1

[10] = tested on: U87MG; assay: Cell viability following irradiation (CellTiter-Glo), U87MG; type: cell-based; conditions: U87MG (Glioblastoma), viability at 6 days
Procedure: as §1

[11] = tested on: H1299; assay: Cell viability following irradiation (CellTiter-Glo), H1299; type: cell-based; conditions: H1299 (Lung Cancer), viability at 6 days
Procedure: as §1

[12] = tested on: SW900; assay: Cell viability following irradiation (CellTiter-Glo), SW900; type: cell-based; conditions: SW900 (Lung Cancer), viability at 6 days
Procedure: as §1

[13] = tested on: Huh7; assay: Cell viability following irradiation (CellTiter-Glo), Huh7; type: cell-based; conditions: Huh7 (Hepatocellular Carcinoma), viability at 6 days
Procedure: as §1

[14] = tested on: Colo-205; assay: Cell viability following irradiation (CellTiter-Glo), Colo-205; type: cell-based; conditions: Colo-205 (Colorectal Cancer), viability at 6 days
Procedure: as §1

[15] = tested on: DBTRG-05MG; assay: Cell viability following irradiation (CellTiter-Glo), DBTRG-05MG; type: cell-based; conditions: DBTRG-05MG (Glioblastoma), viability at 6 days
Procedure: as §1

[16] = tested on: FaDu; assay: Cell viability following irradiation (CellTiter-Glo), FaDu; type: cell-based; conditions: FaDu (Head and Neck Squamous Cell Carcinoma), viability at 6 days
Procedure: as §1

[17] = tested on: OE19; assay: Cell viability following irradiation (CellTiter-Glo), OE19; type: cell-based; conditions: OE19 (Gastric-Esophageal Cancer), viability at 6 days
Procedure: as §1

[18] = tested on: H2009; assay: Cell viability following irradiation (CellTiter-Glo), H2009; type: cell-based; conditions: H2009 (Lung Cancer), viability at 6 days
Procedure: as §1

[19] = tested on: DU4475; assay: Cell viability following irradiation (CellTiter-Glo), DU4475; type: cell-based; conditions: DU4475 (Breast Cancer), viability at 6 days
Procedure: as §1

[20] = tested on: LS411N; assay: Cell viability following irradiation (CellTiter-Glo), LS411N; type: cell-based; conditions: LS411N (Colorectal Cancer), viability at 6 days
Procedure: as §1

[21] = tested on: glioblastoma cell lines; assay: Cell viability following irradiation, glioblastoma cell lines; type: cell-based; conditions: generally less sensitive to radiation alone
Procedure: as §1

[22] = tested on: human fibroblast cell lines (HFL1, IMR90 and MRC5), ARPE19, NHBE, SAEC; assay: Cell viability following irradiation, normal cell lines; type: cell-based; conditions: exception: HS68
Procedure: as §1

CNC(=O)c1ccnc2c([C@H](C)CNc3cc(-c4cnc(C)nc4)ncn3)cccc12 [Compound 578, (S)—N-methyl-8-(1-((2′-methyl-[4,5′-bipyrimidin]-6-yl)amino)propan-2-yl)quinoline-4-carboxamide]
EC50 IR ([1]; compound 578 0.7 μM + IR): 2.8 Gy
EC50 IR ([1]; compound 578 2.1 μM + IR): 3.1 Gy
effect on cell viability ([1]; as a single agent or in combination with radiation, DNA-PK null SCID mouse cell line): minimal effect on cell viability
% T/C (tumor growth inhibition) ([2]; 25 mg/kg b.i.d. oral + 2 Gy whole body IR): 25.6%
% T/C (tumor growth inhibition) ([2]; 50 mg/kg b.i.d. oral + 2 Gy whole body IR): 11.7%
% T/Ti (regression) ([2]; 100 mg/kg b.i.d. oral + 2 Gy whole body IR, P<0.001 compared to IR alone): −3.1%
% T/C (tumor growth inhibition) ([2]; 200 mg/kg q.d. oral + 2 Gy whole body IR): 6.5%
EC50 IR ([3]; compound 578 0.7 μM + IR): 0.9 Gy
EC50 IR ([3]; compound 578 2.1 μM + IR): 0.7 Gy
EC50 IR ([4]; compound 578 0.7 μM + IR): 0.5 Gy
EC50 IR ([4]; compound 578 2.1 μM + IR): <0.5 Gy
EC50 IR ([5]; compound 578 0.7 μM + IR): 1.7 Gy
EC50 IR ([5]; compound 578 2.1 μM + IR): 0.9 Gy
EC50 IR ([6]; compound 578 0.7 μM + IR): 2.7 Gy
EC50 IR ([6]; compound 578 2.1 μM + IR): 2.3 Gy
EC50 IR ([7]; compound 578 0.7 μM + IR): 4.9 Gy
EC50 IR ([7]; compound 578 2.1 μM + IR): 3.3 Gy
EC50 IR ([8]; compound 578 0.7 μM + IR): 1.7 Gy
EC50 IR ([8]; compound 578 2.1 μM + IR): 0.6 Gy
EC50 IR ([9]; compound 578 0.7 μM + IR): 1.1 Gy
EC50 IR ([9]; compound 578 2.1 μM + IR): 0.9 Gy
EC50 IR ([10]; compound 578 0.7 μM + IR): >16 Gy
EC50 IR ([10]; compound 578 2.1 μM + IR): >16 Gy
EC50 IR ([11]; compound 578 0.7 μM + IR): 1.1 Gy
EC50 IR ([11]; compound 578 2.1 μM + IR): 1.5 Gy
EC50 IR ([12]; compound 578 0.7 μM + IR): 4.2 Gy
EC50 IR ([12]; compound 578 2.1 μM + IR): 4.3 Gy
EC50 IR ([13]; compound 578 0.7 μM + IR): 1.3 Gy
EC50 IR ([13]; compound 578 2.1 μM + IR): 0.8 Gy
EC50 IR ([14]; compound 578 0.7 μM + IR): 0.7 Gy
EC50 IR ([14]; compound 578 2.1 μM + IR): 0.7 Gy
EC50 IR ([15]; compound 578 0.7 μM + IR): 4.2 Gy
EC50 IR ([15]; compound 578 2.1 μM + IR): 5 Gy
EC50 IR ([16]; compound 578 0.7 μM + IR): 2 Gy
EC50 IR ([16]; compound 578 2.1 μM + IR): 1.9 Gy
EC50 IR ([17]; compound 578 0.7 μM + IR): 0.5 Gy
EC50 IR ([17]; compound 578 2.1 μM + IR): <0.5 Gy
EC50 IR ([18]; compound 578 0.7 μM + IR): 2.7 Gy
EC50 IR ([18]; compound 578 2.1 μM + IR): 1.5 Gy
EC50 IR ([19]; compound 578 0.7 μM + IR): <0.5 Gy
EC50 IR ([19]; compound 578 2.1 μM + IR): <0.5 Gy
EC50 IR ([20]; compound 578 0.7 μM + IR): 2.3 Gy
EC50 IR ([20]; compound 578 2.1 μM + IR): 1.9 Gy
radiosensitization [21]: less radiosensitization
radiosensitization [22]: only marginal radiosensitization
